As usually defined, the inhibition is the change of the read-out against control, counted positive when it falls.

For this test, the target named is BTK (Homo sapiens, UniProt Q06187). Kind of test: biochemical. The following applies: read-out: BTK inhibition (%), 0.75 uM BTK, […] probe 3l, 15 min preincubation.
BTK, sequence (Q06187 402-655 limits assumed): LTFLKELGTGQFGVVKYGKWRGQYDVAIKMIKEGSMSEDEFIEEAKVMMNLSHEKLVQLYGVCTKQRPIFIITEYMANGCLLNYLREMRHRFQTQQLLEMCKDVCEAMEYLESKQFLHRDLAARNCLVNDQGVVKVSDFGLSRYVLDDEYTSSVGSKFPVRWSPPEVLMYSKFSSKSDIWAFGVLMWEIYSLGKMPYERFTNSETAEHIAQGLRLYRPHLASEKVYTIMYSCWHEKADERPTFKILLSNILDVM
On to `O=c1oc2cc(O)ccc2c2ccc(O)cc12` [PCM-0216079], for which the inhibition at 10 µM was 32.4%.
With `CCn1c(C(=O)N(C2CC2)C2CC2)cc2c3c(ncn3C)c(Nc3cc(C)n(C)n3)nc21` [PCM-0215708], the inhibition at 10 µM turned out to be 3.4%.
The same measure for `O=C(O)c1ccc(-n2nc(-c3ccccc3O)nc2-c2ccccc2O)cc1` [PCM-0095168]: 36.6%; for `CCc1ccc(C(=O)C(C)CN2CCCCC2)cc1` (centres unmarked) [PCM-0215109]: -24.1%.
To `O=C(O)CCCc1c[nH]c2ccccc12` [PCM-0094810] belongs -12.5%.
On to `N#CCC1(n2cc(-c3ncnc4[nH]ccc34)cn2)CN(C2CCN(C(=O)c3ccnc(C(F)(F)F)c3F)CC2)C1` [PCM-0216009], for which the inhibition at 10 µM is 12.4%.
The same measure for `CC(C)=CCC/C(C)=C\CO` [PCM-0216032]: 3.1%; for `Cc1csc(-c2nnc(Nc3ccc(Oc4ncccc4-c4ccnc(N)n4)cc3)c3ccccc23)c1` [PCM-0095438]: 97.9%; for `OC(c1cc(-c2ccc(Cl)cc2)nc2ccccc12)C1CCCCN1` (centres unmarked) [PCM-0215603]: 19.3%.
To `Cc1cnc(-c2cc(N3CCN(C(=O)CCS(C)(=O)=O)CC3)ncc2Cl)c(C)c1` [PCM-0095343] belongs 7.8%; to `CO[C@H]1O[C@H](COS(=O)(=O)O)[C@@H](O[C@@H]2O[C@@H](C(=O)O)[C@@H](O[C@H]3O[C@H](COS(=O)(=O)O)[C@@H](O[C@@H]4O[C@H](C(=O)O)[C@@H](O[C@H]5O[C@H](COS(=O)(=O)O)[C@@H](O)[C@H](O)[C@H]5NS(=O)(=O)O)[C@H](O)[C@H]4O)[C@H](OS(=O)(=O)O)[C@H]3NS(=O)(=O)O)[C@H](O)[C@H]2OS(=O)(=O)O)[C@H](O)[C@H]1NS(=O)(=O)O` [PCM-0215897], -13.6%; to `COc1cccc(-c2cc(=O)c3ccccc3o2)c1N` [PCM-0065604], 4.8%.
To `O=c1c(-c2ccc(O)cc2)coc2cc(O[C@@H]3O[C@H](CO)[C@@H](O)[C@H](O)[C@H]3O)ccc12` [PCM-0214779] belongs 10.9%; to `NC(N)=NCCC[C@H](N)C(=O)NCC(=O)N[C@@H](CC(=O)O)C(=O)O` [PCM-0215176], 9.4%; to `C=CCc1cccc(/C=N/NC(=O)CN2CCN(Cc3ccccc3)CC2)c1O` [PCM-0064890], 9%.
For `Cc1cc(Cl)ccc1OCCCC(=O)NO` [PCM-0064710], the inhibition at 10 µM was 7%.
The same measure for `COc1ccccc1-c1cc(Nc2cccc(CS(N)(=O)=O)c2)ncn1` [PCM-0095804]: 2.8%; for `Cc1cc(C(C)(C)C)cc(C)c1CC1=NCCN1` [PCM-0064984]: -0.8%.
Regarding `Cc1cccc(C)c1NC(=O)CN1CCCC1=O` [PCM-0065191], the inhibition at 10 µM was -8.6%.
For the molecule `CCCN(CCc1cccs1)[C@H]1CCc2c(O)cccc2C1` [PCM-0214799], the inhibition at 10 µM was 14.8%.
Take `C=CCS[S+]([O-])CC=C` (centres unmarked) [PCM-0215928]: the inhibition at 10 µM is -21%.
Regarding `O=c1oc2c(O)c(O)cc3c(=O)oc4c(O)c(O)cc1c4c23` [PCM-0090664], the inhibition at 10 µM is 15.3%.
The same measure for `CNCC[C@H](Oc1cccc2ccccc12)c1cccs1` [PCM-0090599]: -1.6%; for `O=C(Nc1cccc(C2=NCCN2)c1)Nc1cccc(C2=NCCN2)c1` [PCM-0216019]: -17%; for `CCC(=O)NC[C@@H]1C[C@H]1c1cccc2c1CCO2` [PCM-0216634]: 3.9%.
As for `Clc1ccc(C(Cn2ccnc2)OCc2ccc(Sc3ccccc3)cc2)c(Cl)c1` (centres unmarked) [PCM-0095311], the inhibition at 10 µM was determined as 100%.
To `Cc1ccnc(NS(=O)(=O)c2ccc(N)cc2)n1` [PCM-0086511] belongs 1.6%.
To `O=c1cc(-c2ccccc2)oc2cc(O[C@@H]3O[C@H](CO[C@@H]4O[C@H](CO)[C@@H](O)[C@H](O)[C@H]4O)[C@@H](O)[C@H](O)[C@H]3O)c(O)c(O)c12` [PCM-0216453] belongs 30.9%; to `CO/N=C(\C(=O)N[C@@H]1C(=O)N2C(C(=O)O)=CCS[C@H]12)c1csc(N)n1` [PCM-0215091], 7.8%.
To `Cn1nc(C(C)(C)C)cc1C(=O)N[C@@H](Cc1cccc(Cl)c1)C(=O)NCC#N` [PCM-0095472] belongs -18.7%; to `O=C(O)C(O)C(O)C(=O)O` (centres unmarked) [PCM-0215711], -0.9%.
On to `Cc1nn(C)c2c1C(c1ccc(C(F)(F)F)cc1)C(C#N)=C(N)O2` (centres unmarked) [PCM-0215442], for which the inhibition at 10 µM was -6.9%.
The same measure for `O=c1ccoc2cc(O)ccc12` [PCM-0216563]: -2.8%; for `NN1CC(=O)NC1=O` [PCM-0216229]: -7.8%; for `OC[C@H]1O[C@@H](O[C@@H]2OC=C[C@H]3[C@H](O)[C@@H]4O[C@]4(CO)[C@@H]23)[C@H](O)[C@@H](O)[C@@H]1O` [PCM-0215028]: 26.2%.
The same measure for `CC(C)=CCC[C@@](C)(O)[C@H]1CC[C@]2(C)[C@@H]1[C@H](O)C[C@@H]1[C@@]3(C)CC[C@H](O[C@@H]4O[C@H](CO)[C@@H](O)[C@H](O)[C@H]4O)C(C)(C)[C@@H]3CC[C@]12C` [PCM-0216344]: -23.2%.
On to `CC(=O)N=c1sc(S(N)(=O)=O)nn1C` [PCM-0095591], for which the inhibition at 10 µM is -7.8%.
Turning to `CC(C)(C)NC(=O)[C@H]1CC[C@H]2[C@@H]3CC[C@H]4NC(=O)C=C[C@]4(C)[C@H]3CC[C@]12C` [PCM-0214718], the inhibition at 10 µM is 13.2%.
The same measure for `Cc1cn(-c2cc(NC(=O)c3ccc(C)c(Nc4nccc(-c5cnccn5)n4)c3)cc(C(F)(F)F)c2)cn1` [PCM-0215584]: -4.1%.
The same measure for `CCNC(=O)C#Cc1ccc2c(C(=Nc3ccc(CN(C)C)cc3)c3ccccc3)c(O)[nH]c2c1` [PCM-0215488]: 88.3%; for `Nc1cc(C(F)(F)F)c(-c2cc(N3CCOCC3)nc(N3CCOCC3)n2)cn1` [PCM-0095286]: -4.1%.
The same measure for `CCCC(CCC)C(N)=O` [PCM-0215111]: 19.3%; for `O=c1c(O)c(-c2ccc(O)c(O)c2)oc2cc(O)ccc12` [PCM-0094846]: 46.7%.
Turning to `C[C@]12CCC(=O)C=C1CC[C@@H]1[C@@H]2[C@@H](O)C[C@@]2(C)[C@H]1CC[C@]2(O)C(=O)CO` [PCM-0214647], the inhibition at 10 µM stood at 12.4%.
Turning to `CN(C)c1ccc(-c2nc3ncc(Cl)c(N4CCN(CC(=O)Nc5nccs5)CC4)c3[nH]2)cc1` [PCM-0095191], the inhibition at 10 µM is -2.6%.
`COc1ccc(C[C@@H]2c3cc(OC)c(OC)cc3CC[N@+]2(C)CCC(=O)OCCCCCOC(=O)CC[N@@+]2(C)CCc3cc(OC)c(OC)cc3[C@H]2Cc2ccc(OC)c(OC)c2)cc1OC` [PCM-0095290]: the inhibition at 10 µM is -8.6%.
With `COC1CCN(C(=O)c2cc(Cc3n[nH]c(=O)c4ccccc34)ccc2F)CC1` [PCM-0095571], the inhibition at 10 µM was determined as 10%.
As to `Fc1ccc2c(/C=C/c3nn[nH]n3)c[nH]c2c1` [PCM-0215746], the inhibition at 10 µM amounted to 4.6%.
To `Cc1ccccc1C(=O)Nc1ccc(C(=O)N2CCCC(O)c3cc(Cl)ccc32)c(C)c1` (centres unmarked) [PCM-0095415] belongs 4.7%; to `C/C=C1\C(=O)C[C@H]2[C@@H]3CCC4=CC(=O)CC[C@]4(C)[C@H]3CC[C@]12C` [PCM-0216120], -1.6%; to `CC(c1cc2ccccc2s1)N(O)C(N)=O` (centres unmarked) [PCM-0086421], -0.7%.
For `C=C1[C@H]2CC[C@@H]3[C@H]2C(C)(C)CCC[C@]13C` [PCM-0216219], the inhibition at 10 µM came to 4.6%.
On to `COC(=O)/C=C/C(=O)OC` [PCM-0090553], for which the inhibition at 10 µM is 1.4%.
On to `CO[C@@H]1[C@H](OC(=O)/C=C/C=C/C=C/C=C/C(=O)O)CC[C@]2(CO2)[C@H]1[C@@]1(C)O[C@@H]1CC=C(C)C` [PCM-0215572], for which the inhibition at 10 µM turned out to be 3.9%.
As for `N#Cc1cc2cc(CN3CCC(Nc4ncnc5sc(CC(F)(F)F)cc45)CC3)ccc2[nH]1` [PCM-0215651], the inhibition at 10 µM came out at 78%.
To `O=C1/C(=C/c2cccs2)CC/C1=C\c1cccs1` [PCM-0215307] belongs 6%; to `NS(=O)(=O)c1cc(C(=O)O)c(NCc2ccco2)cc1Cl` [PCM-0085991], -2.3%.
To `C[C@@H]1CC[C@H]2C(C)(C)C3CC12CC[C@@]3(C)O` (some centres unmarked) [PCM-0215144] belongs 8.6%; to `NCCCCCNCC12CC3CC(CC(C3)C1)C2` [PCM-0095503], -19.5%.
For the molecule `c1ccc(-c2[nH]ncc2-c2ccnc3ccccc23)nc1` [PCM-0095402], the inhibition at 10 µM was determined as 14.5%.
In the case of `COC(=O)C1=C(C#N)NC(C)=C(C(=O)OC(C)C)C1c1cccc([N+](=O)[O-])c1` (centres unmarked) [PCM-0086361], the inhibition at 10 µM is 14.8%.
For `COc1cc2ncnc(Nc3ccc(F)c(Cl)c3)c2cc1O` [PCM-0216130], the inhibition at 10 µM was 5.4%.
To `Cc1cnc(NC(=O)C2=C(O)c3ccccc3S(=O)(=O)N2C)s1` [PCM-0086060] belongs -6.2%.
The same measure for `C[N+](C)(C)NCCC(=O)[O-]` [PCM-0215179]: -8.5%; for `C/C(=C\CO)CCC[C@H](C)CCC[C@H](C)CCCC(C)C` [PCM-0215913]: 3.9%.
For `CN(C)CCCn1cc(C2=C(c3c[nH]c4ccccc34)C(=O)NC2=O)c2ccccc21` [PCM-0095737], the inhibition at 10 µM was determined as 47.6%.
`CC[C@@H](CO)NCCN[C@@H](CC)CO` [PCM-0090100]: the inhibition at 10 µM is 29.6%.
To `CNCC(=O)c1ccc(O)c(O)c1` [PCM-0090552] belongs 10.9%.
The same measure for `Cc1cc(-n2c(=O)[nH]c(=O)n(C)c2=O)ccc1Oc1ccc(SC(F)(F)F)cc1` [PCM-0086289]: -0.8%; for `CCCCCCCCCCCCCC(=O)O` [PCM-0216589]: 1.7%.
With `CC[C@H]1OC(=O)[C@@](C)(F)C(=O)[C@H](C)[C@@H](O[C@@H]2O[C@H](C)C[C@H](N(C)C)[C@H]2O)[C@](C)(OC)C[C@@H](C)C(=O)[C@H](C)[C@H]2N(CCCCn3cc(-c4cccc(N)c4)nn3)C(=O)O[C@]12C` [PCM-0216086], the inhibition at 10 µM is -22.1%.

For the origin of these results see publication PMC8041284, “Tunable Methacrylamides for Covalent Ligand Directed Release Chemistry” (Journal of the American Chemical Society, 2021).
